From patent US20250032489A1, “MIXED LINEAGE KINASE INHIBITORS AND METHODS OF USE” (The U.S.A., as represented by the Secretary, Department of …, priority 2022, published 2025) come the findings set out here.

Broadly, the pIC50 is the negative decadic logarithm of the IC50, by convention in mol/L. The term pKd denotes −log10 of the Kd, conventionally taken in molar units. Broadly, the Kd is the equilibrium constant for the complex coming apart.

pIC50, pKd: −log10 of the molar value. Read-outs that look alike come from different tables or passages of the source. Where a SMILES comes first, the peptide text is derived from it. The star is where a group is joined. Cbz = O=C(OCc1ccccc1)*

For one data set, the system named is OVCAR5 cells. Nature of the data set: Colony formation assay. It is filed as cell-based. As to the method: (§1) Crystal violet assays were used to assess relative cell growth and survival after treatment with specific compounds. In general, cells were plated in triplicate in 12-well plates for 24 hours before drug treatments were added using 10% FBS media. The plates were incubated for 14 days, with the media and drug being replaced every 48 hours. The cells were then washed with phosphate-buffered saline and fixed in ice-cold methanol before being stained with 0.5% crystal violet (Sigma-Aldrich) in 25% methanol. Images were taken using a ChemiDoc MP Imaging System (Bio Rad), and for quantification, the crystal violet stain was dissolved in 33% acetic acid, incubated for 20 minutes with shaking, and read at 595 nm using iMark™ Microplate Absorbance Reader (Bio-Rad). Graphs display percent colony formation relative to the DMSO-treated control sample.

The target in data set [1] is T1, LZK (Homo sapiens (Human), UniProt O43283). Briefly: Phospho-JNK ELISA in doxycycline-induced CAL33 cells expressing LZK. The note with it: for Phospho-JNK levels: 1 μM LZK inhibitor, 1 hour, compared to GNE-3511 control. In kind it is cell-based. From the text: The ViraPower HiPerform T-REx Gateway Expression System (Invitrogen) was used to generate cells with tetracycline-inducible expression of LZK. In brief, wild-type (WT) or drug-resistant mutant (Q240S) LZK (cloned into pLenti6.3/TO/V5-DEST vector) and pLenti3.3/TR (for tetracycline repressor expression) were transfected into 293FT cells using Lipofectamine 2000 to generate lentiviral stock. Cell lines were generated by antibiotic selection (blasticidin [Gibco] and geneticin [Gibco]). Doxycycline (Sigma-Aldrich) was used at 1 μg/mL to induce LZK expression.
A PathScan® Phospho-SAPK/JNK (Thr183/Tyr185) Sandwich ELISA Assay (Cell Signaling Technology) was used for ELISA assays following the manufacturer's protocol. In general, 500,000 cells were plated and treated with doxycycline the following day where appropriate and incubated at 37° C. for 48 hours. Cells were treated with the drug compound or control in 5% FBS media for 1 hour. After appropriate treatment time, cells were lysed on ice with 1× Cell Lysis Buffer (Cell Signaling Technology) supplemented with phosphatase and protease inhibitors (Sigma). Each diluted cell lysate was added to Phospho-SAPK/JNK (Thr183/Tyr185)Rabbit mAb Coated microwells in triplicate and incubated overnight at 4° C. Samples were treated with the following antibodies and incubated at 37° C. for 1 hour and 30 minutes, respectively: Detection Antibody and HRP-Linked secondary antibody. Samples were washed between treatments using 1× Wash Buffer according to the manufacturer's protocol. TMB substrate was added to each well and incubated at 37° C. for 10 minutes. Following this, STOPsolution was added to each well and absorbance was measured at 450 nm using iMark™ Microplate Absorbance Reader (Bio-Rad). Graphs display relative phospho-JNK levels.
(In an ELISA, binding on a coated surface is turned into a signal by an enzyme label.)

Data set [2] deals with T1, LZK. Briefly: KD determination, Eurofins DiscoveRx Kd-Elect. Particulars: for Kd: in μM. In kind it is binding. As to the method:
(§2) Substituents were varied to improve binding affinity to LZK and selectivity over DLK. KD values were measured by Eurofins DiscoveRx using the Kd-Elect system. Parallel artificial membrane permeability assay (PAMPA) values were measured by Cyprotex.
(§3) KD values were calculated with a standard dose-response curve using the Hill equation: […]
(§4) The Hill Slope was set to −1. Curves were fitted using a non-linear least square fit with the Levenberg-Marquardt algorithm.

Another data set addresses DLK (Homo sapiens (Human), UniProt Q12852). Briefly: KD determination, Eurofins DiscoveRx Kd-Elect. In kind it is binding. Particulars: for Kd: in μM. The method, then:
as §2, §3, §4

Another data set has as its system KYSE70 cells. Nature of the data set: Colony formation assay. In kind it is cell-based. As to the method:
as §1

The subject of a further data set is c-MYC. Nature of the data set: Western blot of c-MYC abundance. The note with it: CAL33 and BICR56 cells depleted of LZK for 48 hours, 10 μM for six hours. In kind it is cell-based. The method, then: Generally, cells were plated in six-well or 35-mm plates for 24 hours, after which doxycycline was added or treatment with specific inhibitor was administered using 5% FBS media for 48 hours. After appropriate treatment time, cells were washed with ice-cold phosphate-buffered saline without Ca and Mg (Quality Biological) and then lysed on ice with RIPA buffer ([…], 1.0% IGEPAL® CA-630, 0.5% sodium deoxycholate, 0.1% SDS, 50 mM Tris, pH 8.0) (Sigma-Aldrich) supplemented with protease inhibitor tablet (Sigma-Aldrich) and phosphatase inhibitor cocktails 2 and 3 (Sigma-Aldrich) followed by centrifugation at 15,000 rpm for 10 minutes at 4° C. Protein concentrations were determined from the cell lysate by using 660 nm Protein Assay Reagent (Pierce). Cell extracts were denatured, subjected to SDS-PAGE, transferred to PVDF membranes (Bio-Rad) and blocked for 2 hours using 5% bovine serum albumin (BSA) in phosphate-buffered saline and 0.1% Tween® 20 (PBS-T). The membranes were incubated with the specific antibodies overnight in 5% BSA/PBST at 4° C. followed by a 1 hour incubation with the appropriate horseradish peroxidase-conjugated secondary antibodies and signal was detected by chemiluminescence (Thermo Fisher).
A general note: Immunoblotting shows a protein as a band on a membrane.

A short description of data set [3]: PAMPA (parallel artificial membrane permeability assay). In kind it is in vitro ADME. As to the method: as §2

DLK, sequence (Q12852 whole entry): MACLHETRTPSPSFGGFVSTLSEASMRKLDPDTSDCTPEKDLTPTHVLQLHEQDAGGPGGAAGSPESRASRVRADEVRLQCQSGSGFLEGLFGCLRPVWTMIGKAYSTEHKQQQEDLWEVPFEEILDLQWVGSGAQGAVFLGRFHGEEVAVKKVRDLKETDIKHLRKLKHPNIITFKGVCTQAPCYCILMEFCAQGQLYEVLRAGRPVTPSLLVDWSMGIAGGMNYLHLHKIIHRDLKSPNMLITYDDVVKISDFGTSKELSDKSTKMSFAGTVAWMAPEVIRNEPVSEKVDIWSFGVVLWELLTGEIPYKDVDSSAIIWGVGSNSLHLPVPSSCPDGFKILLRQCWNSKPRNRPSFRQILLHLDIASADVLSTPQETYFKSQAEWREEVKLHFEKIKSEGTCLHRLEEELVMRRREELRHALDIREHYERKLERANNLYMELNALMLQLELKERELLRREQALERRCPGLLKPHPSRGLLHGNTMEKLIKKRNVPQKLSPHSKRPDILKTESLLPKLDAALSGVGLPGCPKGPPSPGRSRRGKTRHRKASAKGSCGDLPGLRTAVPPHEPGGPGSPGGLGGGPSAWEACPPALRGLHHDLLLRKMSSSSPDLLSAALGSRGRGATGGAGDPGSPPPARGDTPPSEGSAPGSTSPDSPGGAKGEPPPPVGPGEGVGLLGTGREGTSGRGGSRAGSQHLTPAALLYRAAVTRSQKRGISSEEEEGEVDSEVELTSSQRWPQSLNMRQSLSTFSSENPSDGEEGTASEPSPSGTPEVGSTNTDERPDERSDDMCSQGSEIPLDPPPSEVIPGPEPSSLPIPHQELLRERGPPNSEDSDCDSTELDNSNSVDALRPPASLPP
T1 sequence (O43283 whole entry): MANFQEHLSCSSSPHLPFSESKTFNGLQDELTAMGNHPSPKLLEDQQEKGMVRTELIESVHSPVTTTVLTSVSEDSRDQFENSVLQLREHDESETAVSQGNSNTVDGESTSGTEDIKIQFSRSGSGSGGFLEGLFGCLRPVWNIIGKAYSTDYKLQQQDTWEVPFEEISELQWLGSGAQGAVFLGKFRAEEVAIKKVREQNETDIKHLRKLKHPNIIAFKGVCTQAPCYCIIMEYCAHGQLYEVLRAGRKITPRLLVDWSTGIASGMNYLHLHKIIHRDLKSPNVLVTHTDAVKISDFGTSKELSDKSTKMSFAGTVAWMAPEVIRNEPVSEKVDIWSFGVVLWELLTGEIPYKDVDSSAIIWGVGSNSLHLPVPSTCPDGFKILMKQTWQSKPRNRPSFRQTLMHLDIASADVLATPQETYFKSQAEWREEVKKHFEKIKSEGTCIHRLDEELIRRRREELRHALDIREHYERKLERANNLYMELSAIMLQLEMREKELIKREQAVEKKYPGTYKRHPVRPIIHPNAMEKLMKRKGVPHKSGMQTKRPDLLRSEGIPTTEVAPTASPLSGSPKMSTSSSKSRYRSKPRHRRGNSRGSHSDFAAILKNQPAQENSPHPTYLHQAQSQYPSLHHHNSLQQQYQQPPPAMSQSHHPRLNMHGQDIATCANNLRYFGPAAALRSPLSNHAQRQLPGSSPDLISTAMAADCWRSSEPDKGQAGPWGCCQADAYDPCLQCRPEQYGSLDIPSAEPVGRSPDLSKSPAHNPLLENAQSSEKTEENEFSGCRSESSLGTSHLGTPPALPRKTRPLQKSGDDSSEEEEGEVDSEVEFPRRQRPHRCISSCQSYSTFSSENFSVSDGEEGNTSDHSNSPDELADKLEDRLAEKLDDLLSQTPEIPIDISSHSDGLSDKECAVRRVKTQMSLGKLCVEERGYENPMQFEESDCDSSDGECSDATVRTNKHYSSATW

In the case of `Cc1cnc(Nc2cc(C3CCN(C4CCCC4)CC3)cc(N3CCC(F)(F)C3)n2)cn1` [compound 164], in the data set with OVCAR5 cells, the “sensitivity (colony formation)” value is reported as “sensitive”. In addition, at LZK [1], the “dose-dependent inhibition of LZK” value is listed as “dose-dependent inhibition” and the Phospho-JNK levels result is “more effective than GNE-3511”. Also, at LZK [1] (read-out: inhibition of LZK IC50), the pIC50 was around 7.00. As to `Cc1cnc(Nc2cc(C3CCN(C4CCC4)CC3)cc(N3CCC(F)(F)C3)n2)cn1` [compound 162], the “dose-dependent inhibition of LZK” value on LZK [1] is “dose-dependent inhibition”. For the compound `CC(=O)N1CCC(c2cc(Nc3cnc(C)cn3)nc(N(C)CC3CC3)c2)CC1` [compound 186], the negative logarithm of the Kd (pKd) on LZK [2] (read-out: LZK KD) is 7.05. Regarding `Cc1cnc(Nc2cc(C3CCN(C4COC4)CC3)cc(N3CCC(F)(F)C3)n2)cn1` [compound 163], the pKd at LZK [2] (read-out: LZK KD) is 7.70. In the case of `CC(=O)N1CCC(c2cc(Nc3cnc(C)cn3)nc(N3CCC(F)(F)CC3)c2)CC1` [compound 192], the negative logarithm of the Kd (pKd) is 6.92 at DLK and 7.19 on LZK [2] (read-out: LZK KD).

`CC(=O)N1CCC(c2cc(Nc3ncccn3)nc(N3CCC(F)(F)C3)c2)CC1` [compound 117]: the dissociation constant (Kd) on DLK and on LZK [2] (read-out: LZK KD) was above 10 µM each time.

For `CC(=O)N1CCC(c2cc(Nc3cnc(C)cn3)nc(N3CCOCC3)c2)CC1` [compound 191], the negative-log Kd (pKd) was 6.77 on DLK and 6.64 at LZK [2] (read-out: LZK KD). Take `CC(=O)N1CCC(c2cc(Nc3nccnc3C)nc(N3CCC(F)(F)C3)c2)CC1` [compound 109]: the Kd on DLK and on LZK [2] (read-out: LZK KD) was above 10 µM each time.

In turn, `CC(=O)N1CCC(c2cc(Nc3cnc(C)cn3)nc(N3CCC4(CC4)C3)c2)CC1` [compound 201] gave a pKd at DLK of 7.70. For `c1nc(C2CC2)cnc1Nc1cc(C2CN(CC3CC3)C2)cc(N2CC3CCC3C2)n1` (stereo not drawn) [compound 228], on LZK [2] (read-out: LZK KD), the negative-log Kd (pKd) was 8.15. `CC(=O)N1CCC(c2cc(Nc3cnc(C)cn3)nc(N3CCC(F)(F)C3)c2)CC1` [compound 107]: at LZK [1], the Phospho-JNK levels entry was “particularly effective”.

Take `CC(=O)N1CCC(c2cc(Nc3cnc(C)cn3)nc(N3CC4CCC4C3)c2)CC1` (stereo not drawn) [compound 207]: the negative-log Kd (pKd) on DLK is 6.74; on LZK [2] (read-out: LZK KD), 9.01. The “selectivity for LZK over DLK” value on LZK [2] (from KD values) worked out at 180 fold. On to `CC(=O)N1CCC(c2cc(Nc3cnc(C)cn3)nc(N3CC4CC(C4)C3)c2)CC1` [compound 204], for which, on LZK [2] (read-out: LZK KD), the pKd is 8.10. On to `CC(=O)NC12CC(n3cc(-c4cnc(N)c(C(F)(F)F)n4)nc3C(O)C(C)C)(C1)C2` (stereo not drawn) [compound 44], for which the negative-log Kd (pKd) on LZK [2] (read-out: Kd values) was 7.03. For the compound `c1nc(C2CC2)cnc1Nc1cc(C2CN(CC3CC3)C2)cc(N2CC3CC3C2)n1` (stereo not drawn) [compound 219], the “sensitivity (colony formation)” value in the data set with OVCAR5 cells and in the data set on KYSE70 cells was “exquisitely sensitive” in each case. On to `CC(=O)NC12CC(n3cc(-c4cnc(N)c(C#N)n4)nc3C(O)C(C)C)(C1)C2` (stereo not drawn) [compound 45], for which the pKd at LZK [2] (read-out: Kd values) was 6.36. In the case of `CC(=O)N1CC(c2cc(Nc3cnc(C4CC4)cn3)nc(N3CC4CC4C3)c2)C1` (stereo not drawn) [compound 218], the negative logarithm of the Kd (pKd) at DLK was 7.52. On to `COc1cnc(Nc2cc(C3CCN(C(C)=O)CC3)cc(N3CCC(F)(F)C3)n2)cn1` [compound 115], for which the negative logarithm of the Kd (pKd) at LZK [2] (read-out: LZK KD) was 6.52. Turning to `CC(=O)N1CCC(c2cc(Nc3cnc(C)cn3)nc(N3CC4CC(C3)C4O)c2)CC1` (stereo not drawn) [compound 205], the pKd on DLK is 7.00. Regarding `CC(=O)N1CC(c2cc(Nc3cnc(C)cn3)nc(N3CCC(F)(F)C3)c2)C1` [compound 165], at DLK, the “increase of Kd for DLK over the parent (107)” value is given as 6 fold. With `CC(=O)N1CCC(c2cc(Nc3cn(C)cn3)nc(N3CCC(F)(F)C3)c2)CC1` [compound 114], the pKd on DLK was 5.92; on LZK [2] (read-out: LZK KD) it was 5.82.

Turning to `CC(C)C[C@@H](C=O)NC(=O)[C@H](CC(C)C)NC(=O)[C@H](CC(C)C)NC(=O)OCc1ccccc1` [MG132] (Cbz-Leu-Leu-Leu-aldehyde), the “c-MYC levels in cells depleted of LZK” value in the data set on c-MYC was “rescued decreases in the c-MYC levels”.

Take `c1nc(C2CC2)cnc1Nc1cc(C2CCN(CC3CC3)CC2)cc(N2CC3CC3C2)n1` (stereo not drawn) [compound 216]: the “sensitivity (colony formation)” value with OVCAR5 cells and with KYSE70 cells was “exquisitely sensitive” each time. At DLK, this compound had a pKd of 8.70. As for `CC(=O)N1CCC(c2cc(Nc3cnccn3)nc(N3CCC(F)(F)C3)c2)CC1` [compound 100], in data set [3], the Mean permeability is 16.9436 10^−6 cm/sec and the PAMPA was 16.94. Further, on LZK [1] (ELISA assay), the “Inhibition of downstream JNK pathway activation” value is given as “effective inhibitor”. As to `CC(=O)N1CCC(c2cc(Nc3cnc(C)cn3)nc(N3CCC4(CC3)CC4)c2)CC1` [compound 208], the pKd on DLK was 7.00. On to `CC(C)C(O)c1nc(-c2cnc(N)c(OC(F)(F)F)c2)cn1C12CC(N)(C1)C2` (stereo not drawn) [DLK-IN-3, reference compound], for which the Mean permeability in data set [3] (PAMPA) is reported as 2.9021 10^−6 cm/sec. As for `CC(=O)NC12CC(n3cc(-c4cnc(N)cn4)nc3C(O)C(C)C)(C1)C2` (stereo not drawn) [compound 46], at LZK [2] (read-out: Kd values), the pKd was below 5.00.

For the compound `CC(=O)N1CCC(c2cc(Nc3ccn(C)n3)nc(N3CCC(F)(F)C3)c2)CC1` [compound 101], the dissociation constant Kd on DLK and on LZK [2] (read-out: LZK KD) was above 10 µM throughout. Consider `CC(=O)N1CCC(c2cc(Nc3cncc(C)n3)nc(N3CCC(F)(F)C3)c2)CC1` [compound 108], for which the Kd on DLK and at LZK [2] (read-out: LZK KD) was above 10 µM throughout. On to `CC(=O)N1CCC(c2cc(Nc3cnc4ccccc4n3)nc(N3CCC(F)(F)C3)c2)CC1` [compound 112], for which the dissociation constant Kd at DLK and at LZK [2] (read-out: LZK KD) was above 10 µM throughout.

As to `CC(=O)NC12CC(n3cc(-c4cnc(N)c(OC(F)(F)F)c4)nc3C(O)C(C)C)(C1)C2` (stereo not drawn) [DLK-IN-2, reference compound], the Mean permeability in data set [3] (PAMPA) was 0.5352 10^−6 cm/sec. As to `CC(=O)N1CCC(c2cc(Nc3cc4[nH]ccc4cn3)nc(N3CCC(F)(F)C3)c2)CC1` [compound 104], the Kd on DLK and at LZK [2] (read-out: LZK KD) was above 10 µM throughout.
